Results reported in US20210196714A1, “COMPOSITIONS AND METHODS FOR TREATING DISORDERS CHARACTERIZED WITH ABERRANT RAS/MAPK SIGNALING” (Duke University, priority 2018, published 2021).

What was measured:
[1] = target: ERK2 (Homo sapiens, UniProt P28482); conditions: see WO 2002064586; cited from earlier work
[2] = Toxicity test in zebrafish embryos; assay type: in vivo; conditions: zebrafish, in vivo; read-out: LC50 (lethal concentration required to kill 50% of the population)
Experimental: (§1) FIG. 1: In vivo screen using BRAF/MEK/ERK inhibitors. (a) Flow chart of the experimental design. […] For the primary screen, 24 compounds were assessed for their ability to rescue the convergent-extension (CE) phenotype of zebrafish kmt2d morphants, followed by rescue tests of additional phenotypes (jaw and brain) within the kmt2d morphant, or CE of additional genetic KS models. (b) Toxicity results. Twenty embryos at the 8-cell stage were incubated in egg water containing 100 nM, 1 μM, and 10 μM of the 26 compounds. After 24 hours, larvae were scored for toxicity. Black bar: death; grey bar: abnormal morphology; white bar: nontoxic. (c) Embryos were injected with kmt2d-MO at the 2-4 cell stage and soaked in egg water containing 100 nM of each compound at the 8-cell stage. After 24 hours, larvae were scored for CE. […] The efficacy of each compound was determined by a chi-square test in which Class I and Class II were considered together.
(§2) To guard against possible bias, the tool and negative control compounds were interspersed across the experiment and the zebrafish phenotyping team was blinded to the identity of each compound. Typical of small molecule storage, each of the 29 compounds was dissolved in dimethyl sulfoxide (DMSO). […] Next, each compound was diluted serially with egg water and toxicity tested by assaying the percentage of abnormal or dead embryos across three different concentrations (10 μM, 1 μM, 100 nM; FIG. 1B).

[3] = system: zebrafish embryos; assay: Toxicity test in zebrafish embryos; assay type: in vivo
Experimental: as §1, §2

[4] = system: rap1- and kdm6a-depleted zebrafish; assay: CE defects caused by loss of rap1 and kdm6a; assay type: in vivo
Experimental: FIG. 4: Compound 8 ameliorates the CE and jaw defects caused by loss of rap/and kdm6a. (a) gRNA targeting both zebrafish rap1a and rap1b were injected into embryos at the 1-cell stage with Cas9 protein. Larvae were incubated with compound 8 (100 nM) at the 8-cell stage and scored for micrognathia. 5 dpf larvae were stained with Alcian blue to assess the layout of the jaw cartilage. In comparison to control embryos (top), rap1-CRISPR embryos have smaller jaws. […] (b) Quantitative measurement of the distance between MK and CH cartilages. (c) Larvae were scored for CE (n>30 for each concentration). (d) 5 dpf embryos were stained with Alcian blue to assess the layout of jaw cartilage. […] (e) Quantitative measurement of the distance between MK and CH cartilages. *p<0.05; ***p<0.001. […]
(§3) For convergence and extension (CE) phenotyping, embryos were scored as described (see, Leitch, C. C. et al. Nat Genet 40, 443-8 (2008)) at the 8-10 somite stage, and images were captured using an AZ100 microscope and NIS Elements software (Nikon). […] The distance between Meckel's (MK) and ceratohyal (CH) cartilages was measured on ventral bright field images with Image J (NIH). […] Fluorescence signal on embryo heads was imaged with the Nikon AZ100 microscope and DS-Qi1MC digital camera using […] Z-stacks to generate extended depth of focus images. Cell numbers were quantified using the ImageJ ICTN plugin (NIH). […]

[5] = system: kmt2d+/−×kmt2d+/− progeny; assay: CE defect in stable kmt2d mutant intercross progeny; assay type: in vivo, zebrafish; conditions: 100 mM dmDf, 1 dpf
Text: FIG. 12: Treatment with dmDf rescues the defects of stable kmt2d mutant. kmt2d+/− adults were in-crossed and the embryos were then collected at 1 dpf, 2 dpf and 5 dpf to assess dmDf efficacy. […] Error bars show SEM (standard error of the mean).
Although the small molecule testing data in CRISPR F0 mosaic models are consistent with morphant phenotypes (and rescue), experiments recognized the necessity of testing the potential efficacy of dmDf in a stable genetic model that is a better genotypic proxy to human patients. […] In addition to examining proliferation of cells in the brain, experiments assessed whether neural differentiation is affected (see, Van Laarhoven, P. M. et al. Hum Mol Genet 24, 4443-53 (2015)).
as §3

[6] = system: zebrafish kmt2d morphants; assay: Rescue of convergent-extension (CE) phenotype in kmt2d morphants; assay type: in vivo; conditions: dose response

Chain of ERK2 (P28482 whole entry, species assumed): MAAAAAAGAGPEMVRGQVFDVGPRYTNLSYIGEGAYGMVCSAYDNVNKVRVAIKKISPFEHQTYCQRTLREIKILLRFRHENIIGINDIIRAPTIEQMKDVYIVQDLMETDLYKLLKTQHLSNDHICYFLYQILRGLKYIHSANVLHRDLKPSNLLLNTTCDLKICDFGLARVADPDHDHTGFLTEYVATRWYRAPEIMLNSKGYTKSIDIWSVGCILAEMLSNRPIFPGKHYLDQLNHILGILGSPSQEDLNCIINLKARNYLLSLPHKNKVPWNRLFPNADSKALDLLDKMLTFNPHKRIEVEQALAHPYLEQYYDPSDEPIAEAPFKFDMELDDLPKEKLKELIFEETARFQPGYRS

SMILES | ERK2 inhibitor potency [1] | LC50 at 24 h [2] | toxicity at the concentrations used for pMEK test ([3]; 100 nM or 500 nM) | toxicity: pathology (abnormal or dead embryos) ([3]; 100 nM, 24 hours) | LC50 relative to effective in vivo exposure (greater by) ([3]; LC50 vs 0.26 nM exposure) | overt pathologies in zebrafish embryos ([3]; zebrafish, in vivo) | CE defects [4] | CE defect [5] | embryos showing Class I or Class II CE defects ([5]; p<0.001) | CE defects at 50 nM and 100 nM doses ([6]; 50 and 100 nM) | CE rescue at dosages beyond 100 nM ([6]; above 100 nM up to 1 μM)
CC[C@@H](CO)Nc1ncc(C)c(-c2c[nH]c(C(=O)N[C@H](CO)c3cccc(Cl)c3)c2)n1 [Compound 2, N-((S)-1-(3-chlorophenyl)-2-hydroxyethyl)-4-(2-(((S)-1-hydroxybutan-2-yl)amino)-5-methylpyrimidin-4-yl)-1H-pyrrole-2-carboxamide] | potent | – | – | – | – | – | – | – | – | – | –
CC(C)c1nc(-c2cccc(NS(=O)(=O)c3c(F)cccc3F)c2F)c(-c2ccnc(N)n2)s1 [Compound 8, desmethyl-Dabrafenib] | – | 1 to 10 µM | lack of toxicity | safe | four | induced no overt pathologies | ameliorates | ameliorates significantly | 20% | Significant rescue | higher dosages did not improve efficacy any further
